Measured values published in patent US11738099B2, “Molecular probes and methods of use” (CASE WESTERN RESERVE UNIVERSITY, priority 2014, dated 2023).
Where no end group is shown, it is not given here.

Experiments:
MCF-7 tumours [1] = test: MRI at 1.0 Tesla, MCF-7 tumours; type: in vivo, mouse; details: 1.67 μmol/kg i.v.
Experimental: MR images of the mice bearing MDA-MB-231 or MCF-7 tumour xenografts were acquired on an Aspect M3 small animal MRI scanner (1 Tesla). Mice were placed on a holder with the temperature maintained at 37° C., with isoflurane/oxygen mixture supplied to the mice through a nose cone. A thin catheter filled with PBS was connected to the tail vein of the mice. After mice were placed in the coil, a pilot scan was performed to adjust mice to the proper location in the coil. An axial T1-weighted sequence (TR=500 ms; TE=9 ms; Flip angle=90°; Field of view=3 cm×3 cm; Matrix size=128×128×8; slice thickness=2 mm; inter-slice distance=1 mm) was then used to acquire the images of the tumours before and 10 min, 20 min, and 30 min after contrast injection. Images were exported into DICOM data, which were then processed and analyzed using Matlab (Natick, Mass., USA). The contrast-to-noise ratio of tumours in the images was calculated as the difference between tumour mean intensity minus muscle mean intensity, divided by the noise. Three-dimensional images of mice were acquired using a gradient echo T1-weighted sequence with the following parameters: TR=17 ms; TE=6 ms; Flip angle=15°; Field of view=3.5 cm×8 cm; Matrix size=128×512×16; slice thickness=1.5 mm. […] The images were similarly analyzed as described above.

MDA-MB-231 tumours [2] = test: MRI at 1.0 Tesla, MDA-MB-231 tumours; type: in vivo, mouse
Experimental: MR images of the mice bearing MDA-MB-231 or MCF-7 tumour xenografts were acquired on an Aspect M3 small animal MRI scanner (1 Tesla). Mice were placed on a holder with the temperature maintained at 37° C., with isoflurane/oxygen mixture supplied to the mice through a nose cone. A thin catheter filled with PBS was connected to the tail vein of the mice. After mice were placed in the coil, a pilot scan was performed to adjust mice to the proper location in the coil. An axial T1-weighted sequence (TR=500 ms; TE=9 ms; Flip angle=90°; Field of view=3 cm×3 cm; Matrix size=128×128×8; slice thickness=2 mm; inter-slice distance=1 mm) was then used to acquire the images of the tumours before and 10 min, 20 min, and 30 min after contrast injection. Images were exported into DICOM data, which were then processed and analyzed using Matlab (Natick, Mass., USA). The contrast-to-noise ratio of tumours in the images was calculated as the difference between tumour mean intensity minus muscle mean intensity, divided by the noise. Three-dimensional images of mice were acquired using a gradient echo T1-weighted sequence with the following parameters: TR=17 ms; TE=6 ms; Flip angle=15°; Field of view=3.5 cm×8 cm; Matrix size=128×512×16; slice thickness=1.5 mm. Analysis of the change in signal intensity in muscle, heart, liver, kidney, and bladder was performed using Matlab. MRI at 7 Tesla was performed on a horizontal Bruker scanner. T1-weighted spin echo sequence with the following parameters was used: field of view (FOV): 3 cm; slice thickness: 1.2 mm; interslice distance: 1.2 mm; TR: 500 ms, TE: 8.1 ms; flip angle: 90°; average: 2; matrix size: 128×128. The images were similarly analyzed as described above.

Water solubility = type: physicochemical; details: gadofullerene agent
[3] = In vitro transmetallation assay with human serum; type: in vitro ADME; details: 2 h
Experimental: We performed in vitro transmetallation assay according to the protocol reported previously. Briefly, ZD2-Gd3N@C80 (0.02 mM Gd/mL) was incubated with human serum for 2 h. According to previous reports, transmetallation of Gd with Zn^2+, Cu^2+ and Ca^2+ bound in serum proteins occurs rapidly and 2 h is sufficient to study the equilibrium of transmetallation. The mixtures were then centrifuged at 4000 rpm and 25° C. for 150 min using CF-10 centrifugal filters (molecular weight cutoff 10 kDa). Metal ions in both the upper reservoir and the filtrates were quantified by ICP-OES. […] The degree of transmetallation of ZD2-Gd3N@C80 with Zn^2+, Cu^2+ and Ca^2+ ions in serum was evaluated using the percentage of Zn^2+, Cu^2+ and Ca^2+ ions filtered through the membrane, calculated as Transmetallation (%)=(concentration of ions in the filtrates)/(total ion concentrations before filtration)×100. Human serum was used a control.

[4] = Relaxivity measurement of gadofullerenes; type: physicochemical
Experimental: Infrared spectrum of ZD2-Gd3N@C80 was performed using the Cary 630 FTIR Spectrometer (Agilent Technologies, Santa Clara, Calif., USA). Lyophilized hydroxylated Gd3N@C80 or ZD2-Gd3N@C80 was reconstituted to a serial dilution in water. The solutions were pipetted in NMR tubes (500 μL in each tube), and placed in a relaxometer (Bruker) at 1.5 Tesla. For relaxivity measurement at 7 Tesla, NMR tubes containing contrast agent solutions were bundled and placed in a mouse coil in a horizontal 7 Tesla Bruker scanner (Bruker Biospin Co., Billerica, Mass.). T, maps of the solutions were acquired using a previously reported method^29. T1 and T2 values of each solution were measured. The r1 and r2 relaxivities of the contrast agent were calculated as the slope of the plot of 1/T1 and 1/T2 relaxation rates against the concentrations.

Size by TEM and DLS = type: physicochemical
[5] = system: Hs578T and ZR-75-1 xenografts; test: MRI at 7 T, mice bearing Hs578T and ZR-75-1 xenografts; type: in vivo, mouse; details: 20 μmol Gd/kg, 30 min
Experimental: (§1) Female athymic nude mice were purchased from the Case Comprehensive Cancer Center and housed in the Case Center Imaging Research. All animal experiments were carried out according to a protocol approved by the IACUC of Case Western Reserve University. To initiate tumour xenografts, cells cultured in 150 mm dishes were trypsinized and centrifuged. Cell pellets from each dish were suspended in 100 μL PBS and reconstituted with Corning Matrigel Matrix High Concentration (Corning, Corning, N.Y., USA) to a concentration of 2×10^7 cells/mL on ice. The suspended cells in 100 μL matrigel solution were injected subcutaneously in the flank of mice (4-6 weeks) using a 19-gauge needle. After injection, a plug in flank was formed due to matrigel gelling. Tumours were allowed to grow for at least a month before imaging. […]
(§2) MR images of the mice bearing MDA-MB-231 or MCF-7 tumour xenografts were acquired on an Aspect M3 small animal MRI scanner (1 Tesla). […] Images were exported into DICOM data, which were then processed and analyzed using Matlab (Natick, Mass., USA). The contrast-to-noise ratio of tumours in the images was calculated as the difference between tumour mean intensity minus muscle mean intensity, divided by the noise. […] The images were similarly analyzed as described above.

[6] = system: BT549 and T47D xenografts; test: MRI at 7 T, mice bearing BT549 and T47D xenografts; type: in vivo, mouse; details: 20 μmol Gd/kg, 30 min
Experimental: as §1, §2

[7] = system: PC3 prostate tumor xenografts; test: Ex vivo fluorescence imaging, PC3 mouse model; type: in vivo; details: 3 hours after intravenous injection, 10 nmol
Experimental: (§3) After fluorescence imaging of the organs, they were embedded in O.C.T and sectioned at 5 μm thickness, and mounted on to glass slides. The slides were fixed and permeabilized with cold acetone, followed by blocking with 1% BSA for 1 hour. DAPI or EDB-FN specific antibody, BC-1 (Abcam, Cambridge, Mass.), were applied subsequently for staining. Unbound antibodies were washed with TBS-T (0.1%). Alexa Fluor 594-conjugated goat anti-mouse IgG H&L (Abcam) was used as the secondary antibody. Prolong Gold antifade solution (Invitrogen, Grand Island, N.Y.), was used to cover the slides. The stained tissue sections were imaged using confocal laser scanning microscopy.
(§4) The targeted binding of ZD2-Cy5.5 to the prostate tumor was assessed ex vivo using Maestro FLEX In vivo Imaging System (Caliper Life Sciences, Hopkinton, Mass.) using a red filter set (spectral range of 630-910 nm, 1000 ms exposure time). ZD2-Cy5.5 (10 nmol) was administered to study the in vivo distribution of ZD2-based probes. At 3 h post-injection, the mice were sacrificed to image the tumors and the organs.

MCF-7 tumours [8] = test: Fluorescence imaging of tumour sections, MCF-7 model; details: mouse, in vivo
Experimental: (§5) To determine the distribution of ZD2-Cy5.5 in the major organs and tumours, 10 nmol ZD2-Cy5.5 was injected in tumour-bearing mice through the tail vein. At 3 h after injection, mice were sacrificed. Tumours and organs were collected and imaged with CSi Maestro imaging system (Woburn, Mass., USA) using the deep red filter sets (exposure time: 1000 ms).
(§6) Tumours were embedded in Optimum Cutting Temperature Compound (OCT) and kept froze in −80° C. Tumour tissues sectioned at the thickness of 5 μm were then fixed and permeabilized with cold acetone. BSA (1%) in PBS was used to block the tissue at room temperature for 1 hour. Mouse anti-EDB-FN antibody, BC-1 (ab154210, Abcam, Cambridge, Mass., USA), diluted with 1% BSA (1:500) was applied to the tissue and incubated at room temperature for 1 hour. After extensive washing, AlexFluor594-conjugated anti-mouse IgG antibody (1:500) (Invitrogen, Eugene, Oreg., USA) was applied and incubated with the tissue for 1 hour. Tissue sections were then counterstained with Prolong Gold antifade mounting medium with DAPI (Invitrogen). Confocal laser scanning microscopy (FV1000, Olympus, Japan) was used to acquire the fluorescence images of the tissues. H&E staining of the tissue was performed at the tissue resource core of Case Western Reserve University. H&E staining images were acquired using the Virtual slide microscope VS120 (Olympus).

PC3 spheroids = test: ZD2-Cy5.5 binding, 3D matrigel culture of PC3 cells; type: cell-based; details: 250 nM, 1 h
Experimental: (§7) All reagents for chemical synthesis were purchased from Sigma Aldrich unless stated otherwise. PC3 and LNCaP cells were purchased from American Type Culture Collection (ATCC, Manassas, Va., USA), and grown in RPMI medium (Thermo Fisher Scientific, Waltham, Mass., USA) supplemented with 10% Fetal Bovine Serum (FBS) and 1% Penn/Strep at 37° C. in 5% CO2. To construct GFP-expressing cell lines, cells were transfected with lentivirus as previously reported. Matrigel 3D culture was formed following the 3D “on-top” protocol. Briefly, a glass-bottom plate was coated with a thick layer of freshly thawed matrigel, followed by solidifying the matrigel at 37° C. for 15-30 min. Cells were then plated onto the coated plate with medium containing 5% matrigel. The culture was maintained for at least 4-6 days and then ZD2-Cy5.5 (250 nM) was added to the culture medium. After 1 h, cells in the 3D matrigel were imaged with confocal laser fluorescence microscopy.

MCF-7 cells = test: ZD2-Cy5.5 binding, 3D culture of MCF-7 cells; type: cell-based; details: 250 nM, 1 h, confocal microscopy
Experimental: (§8) MDA-MB-231, Hs578T, BT549, MCF-7, ZR-75-1 and T47D were acquired from American Type Culture Collection (ATCC, Rockville, Md., USA). MDA-MB-231 cells were maintained in Dulbecco Modified Eagle Medium (DMEM) supplemented with 10% fetal bovine serum (FBS) and 5% penicillin/streptomycin (pen/strep). Hs578T, BT549 and MCF-7 cells were maintained in Eagle Minimum Essential Medium (EMEM) supplemented with 0.01 mg/ml human recombinant insulin, 10% FBS and 5% pen/strep. ZR-75-1 and T47D were maintained in RPMI 1640 medium supplemented with 10% FBS and 5% pen/strep. Three-dimensional culture of cells was achieved by an “on-top” matrigel method reported previously. Briefly, on a glass-bottom plate a thick layer of matrigel was coated, followed by plating MDA-MB-231 or MCF-7 cells on top of the matrigel. Once 3D sphere or clusters formed, ZD2-Cy5.5 was added to the medium to the final concentration of 250 nM. Binding of ZD2-Cy5.5 to the 3D spheres was evaluated using a confocal laser scanning microscope (Olympus Corporation, Tokyo, Japan) after culturing for 1 h.

LNCaP cell clusters = test: ZD2-Cy5.5 binding, 3D matrigel culture of LNCaP cells; type: cell-based; details: 250 nM, 1 h
Experimental: as §7

MDA-MB-231 tumours [9] = test: Fluorescence imaging of tumours, organs and sections, MDA-MB-231 model; type: in vivo, mouse
Experimental: as §5, §6

[10] = system: LNCaP prostate tumor xenografts; test: Ex vivo fluorescence imaging and sections, LNCaP mouse model; type: in vivo; details: confocal microscopy
Experimental: as §3, §4

MDA-MB-231 spheres = test: ZD2-Cy5.5 binding, 3D culture of MDA-MB-231 cells; type: cell-based; details: 250 nM, 1 h, confocal microscopy
Experimental: as §8

ZD2-Gd3N@C80: ZD2-Cys peptide conjugated to maleimido hydroxylated gadofullerene Gd3N@C80, about one peptide per cage (CTVRTSAD; also: conjugated to maleimido hydroxylated gadofullerene Gd3N@C80, about one peptide per cage)
signal enhancement in MCF-7 tumours (MCF-7 tumours [1]): little enhancement
signal enhancement in MDA-MB-231 tumours (MDA-MB-231 tumours [2]; 1.67 μmol/kg i.v., 1.0 Tesla, at least 30 minutes): Significant signal enhancement
signal enhancement in MDA-MB-231 tumours with co-injection of ZD2 peptide (MDA-MB-231 tumours [2]; 1.67 μmol/kg with 25 μmol/kg ZD2 peptide): significantly reduced the signal enhancement
increase of contrast-to-noise ratio (CNR) in MDA-MB-231 tumours (MDA-MB-231 tumours [2]; 1.67 μmol/kg, 10-30 min): 39 to 45%
water solubility (Water solubility): complete water solubility
transmetallation [3]: < 0.12%
r1 relaxivity per Gd(III) ion ([4]; 1.5 Tesla): 74.6 mM⁻¹ s⁻¹
r1 relaxivity per molecule ([4]; 1.5 Tesla): 223.8 mM⁻¹ s⁻¹
r1 relaxivity per Gd(III) ion ([4]; 7 Tesla): 24.78 mM⁻¹ s⁻¹
r1 relaxivity relative to clinical Gd(III)-based contrast agents ([4]; vs Gd-DTPA and Gd(HP-DO3A)): ~20 times
average radius (Size by TEM and DLS; DLS): 1.40 nm
average diameter (Size by TEM and DLS; TEM and DLS): 2.8 nm
signal enhancement and CNR increase in Hs578T vs ZR-75-1 tumours [5]: greater signal enhancement and significantly higher CNR increase
signal enhancement and CNR increase in BT549 vs T47D tumours [6]: greater signal enhancement and significantly higher CNR increase

ZD2-Cy5.5: linear ZD2 peptide with PEG spacer conjugated to Cy5.5 NHS ester (TVRTSAD; also: PEG spacer conjugated to Cy5.5 NHS ester)
fluorescence signal of PC3 tumors vs normal organs [7]: enhanced fluorescence signal
ZD2-Cy5.5 binding in MCF-7 tumour sections (MCF-7 tumours [8]): little
binding to PC3 spheroids (PC3 spheroids): able to bind EDB-FN secreted by the PC3 spheroids
binding and fluorescence of MCF-7 cells (MCF-7 cells): lower ZD2-Cy5.5 binding and weaker fluorescence intensity
binding to LNCaP cell clusters (LNCaP cell clusters): no peptide binding was detected
fluorescence intensity in MDA-MB-231 tumours vs MCF-7 tumours and normal tissues (MDA-MB-231 tumours [9]; 0.5 μmol/kg i.v., 3 hours after injection): greater
fluorescence signal in the liver and kidneys (MDA-MB-231 tumours [9]; 3 hours after injection): Relatively high fluorescence signal intensity
Cy5.5 fluorescence of MDA-MB-231 tumour sections (MDA-MB-231 tumours [9]; mouse, in vivo): strong Cy5.5 fluorescence
probe in LNCaP tumor sections [10]: undetectable
fluorescence of MDA-MB-231 spheres (MDA-MB-231 spheres): strong fluorescence intensity
